Measurements published in patent US20130029973A1, “TETRAHYDROBENZOTHIOPHENE COMPOUND” (ASTELLAS PHARMA INC., priority 2010, published 2013).

Key:
rat NPT-IIb = biological target: T1, rat NPT-IIb (Rattus norvegicus, UniProt Q9JJ09); assay: 33P phosphate uptake inhibiting action of rat NPT-IIb expressing cell; format: cell-based; conditions: HEK293; evaluation concentration 1 μM; 33P uptake in rat NPT-IIb stably expressing 293 cells; read-out: Rat NPT-IIb inhibitory rate (%)
T1 construct: rat NPT-IIb ORF was cloned into p3×FLAG-CMV-10; 3xFLAG (N); expressed in transfected cells
T1 sequence (Q9JJ09 1-695): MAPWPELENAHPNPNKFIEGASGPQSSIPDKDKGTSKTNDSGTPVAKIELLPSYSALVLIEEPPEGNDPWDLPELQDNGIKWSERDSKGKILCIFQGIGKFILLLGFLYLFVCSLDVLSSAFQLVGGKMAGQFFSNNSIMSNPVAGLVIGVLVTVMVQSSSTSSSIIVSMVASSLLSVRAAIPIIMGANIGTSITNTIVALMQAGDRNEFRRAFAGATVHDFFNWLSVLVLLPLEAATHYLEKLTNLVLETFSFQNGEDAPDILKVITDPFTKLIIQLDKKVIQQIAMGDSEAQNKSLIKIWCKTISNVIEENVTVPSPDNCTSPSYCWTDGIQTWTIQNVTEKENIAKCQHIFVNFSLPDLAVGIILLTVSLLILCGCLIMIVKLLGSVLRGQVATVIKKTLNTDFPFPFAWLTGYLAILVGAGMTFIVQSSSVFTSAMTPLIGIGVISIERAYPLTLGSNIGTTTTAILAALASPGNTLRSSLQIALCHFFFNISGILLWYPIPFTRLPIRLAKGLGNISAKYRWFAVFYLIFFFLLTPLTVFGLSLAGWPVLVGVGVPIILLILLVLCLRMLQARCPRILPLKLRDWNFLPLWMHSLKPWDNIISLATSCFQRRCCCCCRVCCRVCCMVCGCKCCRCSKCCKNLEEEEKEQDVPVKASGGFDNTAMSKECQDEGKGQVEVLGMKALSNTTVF
From the text: Test Example 1: ^33P Phosphate Uptake Inhibiting Action of Rat NPT-IIb Expressing Cell
Preparation of Rat NPT-IIb Expressing Cell
Using rat small intestine cDNA library as a template, rat NPT-IIb ORF was cloned into p3×FLAG-CMV-10 by PCR according to a standard method. Then, the cloned rat NPT-IIb expressing plasmid was transfected into 293 cells, and G418 was used to obtain a rat NPT-11b-stably expressing cell line.
Evaluation System on Inhibition of Phosphate Uptake into Rat NPT-IIb Expressing Cell
The rat NPT-Hb expressing cells were seeded into a 96-well plate and incubated overnight. The medium was taken out and washed with buffer A (137 mM N-methyl-D-glucamine, 5.4 mM KCl, 2.8 mM CaCl2, 1.2 mM MgCl2, 10 mM HEPES (adjusted to pH 7.4 with HCl)), and then buffer B (137 mM NaCl, 5.4 mM KCl, 2.8 mM CaCl2, 1.2 mM MgCl2, 0.1 mM KH2PO4, 10 mM HEPES (adjusted to pH 7.4 with KOH)) was added thereto. Then, a compound having 10-fold higher concentration relative to the evaluation concentration was prepared by dilution with the buffer B and added thereto, followed by incubation in CO2 incubator. Buffer B supplemented 50 μCi/mL ^33P was added thereto, followed by further incubation in a CO2 incubator. After the reaction, the buffer was taken out and the cells were washed with buffer C (137 mM NaCl, 10 mM Tris/HCl pH 7.2). Then, Microscint-20 was added thereto and ^33P uptake was measured by using TopCount. The inhibitory rate was determined according to the following equation.
Inhibitory rate (%)=(1−(^33P uptake of drug-treated well)/(^33P uptake of DMSO-added well))×100
For several compounds of the formula (I), rat NPT-11b inhibitory activity at a pharmacological evaluation concentration of 1 μM is shown in Table 1. Here, Ex represents Example No. as denoted below (this shall apply hereinafter).

[1] = system: orally 32P phosphate loaded rats; assay: Blood radioactivity increase inhibiting action in orally 32P phosphate loaded rats (phosphate absorption inhibitory action); format: in vivo; conditions: Rattus norvegicus, 0.5 h; 3 mg/kg oral, male Wistar rats; from serum radioactivity AUC0-30min vs control group; read-out: Phosphate absorption inhibitory rate (%)
Experimental: Blood Radioactivity Increase Inhibiting Action in Orally ^32P Phosphate Loaded Rats (Phosphate Absorption Inhibitory Action)
Male Wistar rats (6 to 7 weeks old) were fasted for 24 hours and used as experimental animals. The compound was dissolved or suspended with a solvent, and was used at a concentration of 0.6 mg/mL. The compound-administered animals were forcibly orally administered with the compound at a dose of 3 mg/kg. Control-group animals were administered a solvent containing no compound at a dose of 5 mL/kg. After 5 minutes from administration of the compound or from administration of the solvent, a ^32P-containing phosphate solution (8.3 mM NaH2PO4) was orally administered thereto at a dose of 7.2 mL/kg. After 15 minutes and 30 minutes, the blood was taken from the orbital venous plexus and the serum was collected. Radioactivity in 0.1 mL of the serum was measured by a liquid scintillation counter. AUC0-30min calculated from the measured counts was considered as a phosphate absorption amount. The phosphate absorption inhibitory rate was determined from the AUC0-30min value according to the following equation.
Phosphate absorption inhibitory rate (%)=(1−Phosphate absorption count of compound-administered group/Phosphate absorption count of control group)×100
As a result, it was confirmed that several compounds of the formula (I) have an intestinal phosphate absorption inhibitory action. With the several compounds of the formula (I), the phosphate absorption inhibitory rates at a pharmacological evaluation dose of 3 mg/kg are shown in Table 2.

Row | SMILES | inhibition at 1 µM (rat NPT-IIb) [%] | inhibition in vivo at 3 mg/kg [1] [%] | melting point [°C]
1 | CCN([C@H]1CC[C@H](C(=O)O)CC1)S(=O)(=O)c1cccc(C(=O)Nc2sc3c(c2C(=O)Nc2ccc(CCc4ccc(C(=O)O)cc4)cc2)CCCC3)c1 [Example 2, 4-{2-[4-({[2-({3-[(trans-4-carboxycyclohexyl)(ethyl)sulfamoyl]benzoyl}amino)-4,5,6,7-tetrahydro-1-benzothiophen-3-yl]carbonyl}amino)phenyl]ethyl}benzoic acid] | 83 | ≥ 60 | 262.8
2 | O=C(O)c1ccc(CCc2ccc(NC(=O)c3c(NC(=O)c4cccc(S(=O)(=O)N(C5CC5)[C@H]5CC[C@H](C(=O)O)CC5)c4)sc4c3CCCC4)cc2)cc1 [Example 4, 4-{2-[4-({[2-({3-[(trans-4-carboxycyclohexyl)(cyclopropyl)sulfamoyl]benzoyl}amino)-4,5,6,7-tetrahydro-1-benzothiophen-3-yl]carbonyl}amino)phenyl]ethyl}benzoic acid] | 82 | ≥ 60 | –
3 | O=C(O)c1ccc(CCc2ccc(NC(=O)c3c(NC(=O)c4cccc(S(=O)(=O)N(C5CC5)[C@H]5CC[C@@H](C(=O)O)CC5)c4)sc4c3CCCC4)cc2)cc1 [Example 5, 4-{2-[4-({[2-({3-[(cis-4-carboxycyclohexyl)(cyclopropyl)sulfamoyl]benzoyl}amino)-4,5,6,7-tetrahydro-1-benzothiophen-3-yl]carbonyl}amino)phenyl]ethyl}benzoic acid] | 87 | – | –
4 | CCOC(=O)CN(C1CC1)S(=O)(=O)c1cccc(C(=O)Nc2sc3c(c2C(=O)Nc2ccc(CCc4ccc(C(=O)OC)cc4)cc2)CCCC3)c1 [Example 6, methyl 4-{2-[4-({[2-({3-[cyclopropyl(2-ethoxy-2-oxoethyl)sulfamoyl]benzoyl}amino)-4,5,6,7-tetrahydro-1-benzothiophen-3-yl]carbonyl}amino)phenyl]ethyl}benzoate] | – | – | 186.8
5 | CN(CCC(=O)O)S(=O)(=O)c1cccc(C(=O)Nc2sc3c(c2C(=O)Nc2ccc(CCc4ccc(C(=O)O)cc4)cc2)CCCC3)c1 [Example 10, 4-{2-[4-({[2-({3-[(2-carboxyethyl)(methyl)sulfamoyl]benzoyl}amino)-4,5,6,7-tetrahydro-1-benzothiophen-3-yl]carbonyl}amino)phenyl]ethyl}benzoic acid] | 42 | – | 230.3
6 | O=C(O)CCCN(C1CC1)S(=O)(=O)c1cccc(C(=O)Nc2sc3c(c2C(=O)Nc2ccc(CCc4ccc(C(=O)O)cc4)cc2)CCCC3)c1 [Example 12, 4-{2-[4-({[2-({3-[(3-carboxypropyl)(cyclopropyl)sulfamoyl]benzoyl}amino)-4,5,6,7-tetrahydro-1-benzothiophen-3-yl]carbonyl}amino)phenyl]ethyl}benzoic acid] | 76 | ≥ 60 | 250.8
7 | CCN(C1(C(=O)O)CC1)S(=O)(=O)c1cccc(C(=O)Nc2sc3c(c2C(=O)Nc2ccc(CCc4ccc(C(=O)O)cc4)cc2)CCCC3)c1 [Example 14, 4-{2-[4-({[2-({3-[(1-carboxycyclopropyl)(ethyl)sulfamoyl]benzoyl}amino)-4,5,6,7-tetrahydro-1-benzothiophen-3-yl]carbonyl}amino)phenyl]ethyl}benzoic acid] | 71 | 47 | 254.7
8 | CC(C)N(C1(C(=O)O)CC1)S(=O)(=O)c1cccc(C(=O)Nc2sc3c(c2C(=O)Nc2ccc(CCc4ccc(C(=O)O)cc4)cc2)CCCC3)c1 [Example 17, 4-{2-[4-({[2-({3-[(1-carboxycyclopropyl)(isopropyl)sulfamoyl]benzoyl}amino)-4,5,6,7-tetrahydro-1-benzothiophen-3-yl]carbonyl}amino)phenyl]ethyl}benzoic acid] | 75 | – | 261.4
9 | CCN(c1ccc(C(=O)O)cc1)S(=O)(=O)c1cccc(C(=O)Nc2sc3c(c2C(=O)Nc2ccc(CCc4ccc(C(=O)O)cc4)cc2)CCCC3)c1 [Example 21] | 85 | – | 159.4
10 | C[C@@]1(C(=O)O)CCCN1S(=O)(=O)c1cccc(C(=O)Nc2sc3c(c2C(=O)Nc2ccc(CCc4ccc(C(=O)O)cc4)cc2)CCCC3)c1 [Example 25, 1-[(3-{[3-({4-[2-(4-carboxyphenyl)ethyl]phenyl}carbamoyl)-4,5,6,7-tetrahydro-1-benzothiophen-2-yl]carbamoyl}phenyl)sulfonyl]-2-methylproline] | 52 | – | –
11 | CC(=O)N1CCN(S(=O)(=O)c2cccc(C(=O)Nc3sc4c(c3C(=O)Nc3ccc(CCc5ccc(C(=O)O)cc5)cc3)CCCC4)c2)CC1 [Example 27, 4-{2-[4-({[2-({3-[(4-acetylpiperazin-1-yl)sulfonyl]benzoyl}amino)-4,5,6,7-tetrahydro-1-benzothiophen-3-yl]carbonyl}amino)phenyl]ethyl}benzoic acid] | 58 | – | 241.4
12 | CN(CC(O)CO)S(=O)(=O)c1cccc(C(=O)Nc2sc3c(c2C(=O)Nc2ccc(CCc4ccc(C(=O)O)cc4)cc2)CCCC3)c1 (centres unmarked) [Example 29, 4-{2-[4-({[2-({3-[(2,3-dihydroxypropyl)(methyl)sulfamoyl]benzoyl}amino)-4,5,6,7-tetrahydro-1-benzothiophen-3-yl]carbonyl}amino)phenyl]ethyl}benzoic acid] | 51 | – | –
13 | CC(C)N(Cc1cccc(C(=O)O)c1)S(=O)(=O)c1cccc(C(=O)Nc2sc3c(c2C(=O)Nc2ccc(CCc4ccc(C(=O)O)cc4)cc2)CCCC3)c1 [Example 58] | 65 | ≥ 60 | –
14 | CCOC(=O)C1(N(CC)S(=O)(=O)c2cccc(C(=O)Nc3sc4c(c3C(=O)Nc3ccc(CCc5ccc(C(=O)O)cc5)cc3)CCCC4)c2)CC1 [Example 70] | 83 | – | –
15 | CCCN([C@H]1CC[C@H](C(=O)O)CC1)S(=O)(=O)c1cccc(C(=O)Nc2sc3c(c2C(=O)Nc2ccc(CCCc4ccc(C(=O)O)cc4)cc2)CCCC3)c1 [Example 102] | 87 | ≥ 60 | –
16 | CC(=O)N1CCN(S(=O)(=O)c2cccc(C(=O)Nc3sc4c(c3C(=O)Nc3ccc(CCCc5ccc(C(=O)O)cc5)cc3)CCCC4)c2)CC1 [Example 109] | 52 | – | –
